Experimental data from patent US20200131249A1, “NOVEL PROTEINS AND USE THEREOF” (EVOLVERITAS KFT., priority 2017, published 2020).
Where no end group is shown, it is not given here.

How the values were obtained:
intrinsic pathway = assay: Activated partial thromboplastin time (APTT) in human plasma
Experimental: (§1) Blood coagulation measurements using blood plasma taken from healthy human individuals were also performed. From the blood obtained through venipuncture and treated with sodium citrate (3.8% wt/vol) the plasma was isolated by centrifugation (2,000 g, 15 minutes, Jouan CR412 centrifuge).
(§2) The effect of the protein variants of the present invention on the blood coagulation process was tested in three standard assays, the thrombin time, testing any direct effects on thrombin; prothrombin time, testing any effects on the extrinsic pathway; and the activated partial thromboplastin time, testing any effects on the intrinsic pathway. Blood was collected from a healthy individual by vein puncture after informed consent. The blood was treated with sodium-citrate (3.8% w/v) and centrifuged. All three assays were performed on the automated instrument Sysmex CA-1500 (Sysmex) with Innovin reagent (Dale Behring, Marburg, Germany).
(§3) The inhibitors were applied in a fivefold serial dilution with the highest final concentration being 36 μM. This value is 3-4 orders of magnitudes higher than the KI values of the three protein variants of the present invention on human MASP-2. Even at the highest concentration the protein variants of the present invention have only little effect in the APTT test and no effect in the PT and TT tests.

thrombin = assay: Thrombin time (TT) in human plasma
Experimental: as §1, §2, §3

extrinsic pathway = assay: Prothrombin time (PT) in human plasma
Experimental: as §1, §2, §3

human MASP-3 = target: T1, human MASP-3 (Homo sapiens, UniProt P48740); conditions: Data from Héja et al. 2012a; cited from earlier work
T1 construct: catalytic enzyme fragments containing the three C-terminal domains: CCP1-CCP2-SP
T1 sequence (P48740 450-728 isoform P48740-2 limits assumed): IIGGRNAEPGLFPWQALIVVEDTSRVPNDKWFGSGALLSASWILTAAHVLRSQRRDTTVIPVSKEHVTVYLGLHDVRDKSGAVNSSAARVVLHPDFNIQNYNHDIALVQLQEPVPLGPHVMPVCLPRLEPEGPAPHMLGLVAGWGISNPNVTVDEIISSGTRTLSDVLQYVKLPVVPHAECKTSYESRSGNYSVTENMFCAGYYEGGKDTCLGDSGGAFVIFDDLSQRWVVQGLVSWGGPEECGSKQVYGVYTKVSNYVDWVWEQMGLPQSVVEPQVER

MASP-2 = MASP-2 (Homo sapiens, UniProt O00187); design: catalytic enzyme fragments containing the three C-terminal domains: CCP1-CCP2-SP; made in house; inclusion bodies, renatured; conditions: Data from Héja et al. 2012b; cited from earlier work
Chain of MASP-2 (O00187 445-686 limits assumed): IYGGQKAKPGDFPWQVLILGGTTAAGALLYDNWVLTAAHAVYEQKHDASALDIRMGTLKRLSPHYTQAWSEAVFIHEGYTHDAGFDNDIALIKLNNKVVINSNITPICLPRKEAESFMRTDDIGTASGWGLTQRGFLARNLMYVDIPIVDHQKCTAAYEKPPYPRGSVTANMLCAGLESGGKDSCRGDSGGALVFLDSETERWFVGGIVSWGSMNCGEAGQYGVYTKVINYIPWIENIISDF
Chain of MASP-2 (O00187 287-444 partner limits assumed): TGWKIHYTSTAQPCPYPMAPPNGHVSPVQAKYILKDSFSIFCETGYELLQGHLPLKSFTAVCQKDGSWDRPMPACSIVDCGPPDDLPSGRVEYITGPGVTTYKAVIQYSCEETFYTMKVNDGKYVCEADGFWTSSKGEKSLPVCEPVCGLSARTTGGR

SEQ ID NO: 14: TFPI-D2 variant protein with inhibitor loop PCRAVKR (SEQ ID NO: 4) (KPDFCFLEEDPGPCRAVKRRYFYNNQTKQCERFKYGGCLGNMNNFETLEECKNICEDG; ends and bridges not checked; cysteine pairing not given here)
APTT (intrinsic pathway; inhibitor 0.1 μM): 36.1 s
APTT (intrinsic pathway; inhibitor 0.3 μM): 36.8 s
APTT (intrinsic pathway; inhibitor 1.4 μM): 37.9 s
APTT (intrinsic pathway; inhibitor 7.2 μM): 40.2 s
APTT (intrinsic pathway; inhibitor 36.0 μM): 46.4 s
TT (thrombin; inhibitor 0.1 μM): 16.5 s
TT (thrombin; inhibitor 0.3 μM): 16.6 s
TT (thrombin; inhibitor 1.4 μM): 16.7 s
TT (thrombin; inhibitor 7.2 μM): 16.2 s
TT (thrombin; inhibitor 36.0 μM): 15.5 s
PT (extrinsic pathway; inhibitor 0.1 μM): 10.8 s
PT (extrinsic pathway; inhibitor 0.3 μM): 10.7 s
PT (extrinsic pathway; inhibitor 1.4 μM): 10.8 s
PT (extrinsic pathway; inhibitor 7.2 μM): 10.9 s
PT (extrinsic pathway; inhibitor 36.0 μM): 11.3 s

SGMI-2 (GSGEVTCEPGTTFKDKCNTCRCGSDGKSAVCTKLWCNQ; Synthetic protein of insect origin) [reference compound]
Ki (human MASP-3): ~5 µM
Ki (MASP-2): 0.006 µM
